Patent publication US8927730B2, “Intramolecular hydrogen-bonded nitric oxide synthase inhibitors” (Northwestern University, priority 2010, dated 2015)

What was measured:
[1] = target: rat nNOS (Rattus norvegicus (Rat), UniProt P29476); experiment: In vitro purified enzyme assay (hemoglobin capture), nNOS; type: biochemical; settings: for Ki: calculated from directly measured IC50 (Cheng-Prusoff), rat nNOS; for IC50: purified enzyme assay
Experimental: (§1) The three NOS isoforms, rat nNOS, murine iNOS and bovine eNOS were recombinant enzymes overexpressed in E. coli and purified as reported in the literature. (See, e.g., example 51 of the aforementioned incorporated '790 patent and the references cited therein.) The hemoglobin capture was used to measure nitric oxide production. (See, Hevel, J. M. and Marietta, M. A. Nitric Oxide Synthase Assays. Methods Enzymol. 1994, 133, 250-258.) Briefly, the assay was run at 37° C. in 100 mM HEPES buffer (10% glycerol; pH 7.4) in the presence of 10 μM L-arginine. The following NOS cofactors were also included in the assay: 100 μM NADPH, 10 μM tetrahydrobiopterin, 1 mM CaCl2, 11.6 μg/mL calmodulin and 3.0 μM oxyhemoglobin. For iNOS, calmodulin and CaCl2 were omitted. The assay was run in a high throughput manner, using the Synergry 4 by BioTek, at the Northwestern University HighThroughput Analysis Facility. The assay was run in triplicate; 48 100 uL reactions were ran at once in a 96 well plate. The addition of hemoglobin and NOS were automated with a maximum of a 30 second delay before the reactions could be recorded at 401 nm. The absorbance increase at 401 nm is due to the formation of NO via the conversion of oxyhemoglobin to methemoglobin.
(§2) The IC50 values were obtained using non-linear regression in GraphPad Prism5 software.

[2] = target: bovine eNOS (Bos taurus (Bovine), UniProt P29473); experiment: In vitro purified enzyme assay (hemoglobin capture), eNOS; type: biochemical; settings: for Ki: calculated from directly measured IC50 (Cheng-Prusoff), bovine eNOS; for selectivity n/e: ratio of Ki (eNOS) to Ki (nNOS)
Experimental: as §1, §2

[3] = target: HEK293t cells stably transfected with rat nNOS (Rattus norvegicus (Rat), UniProt P29476); experiment: nNOS cell-based assay (nitrite production, Griess reagent); settings: for Relationship (fold higher in cells): cell-based IC50 versus in vitro IC50; for IC50: inhibition of nitric oxide production in HEK293t cells stably expressing nNOS
Experimental: HEK293t cells stably transfected with rat nNOS were cultured as previously described, and the nNOS inhibition assay was performed as previously reported (Fang, J.; Silverman, R. B. A cellular model for screening neuronal nitric oxide synthase inhibitors. Analytical Biochemistry 2009, 390, 74-78), with the following modifications: assays were performed in 96-well plates with a total volume of 100 μL, and 10 μM A23187 (Sigma Aldrich, St Louis, Mo., USA) in 50% DMSO was used in place of 5 μM. Nine concentrations of each inhibitor were tested, in at least triplicate wells. All inhibitors were assayed within the same experiment to assure consistencies in cell concentration and passage number. The entire assay was repeated at least twice for each inhibitor, and the IC50 values averaged. After 6 hours of activation (in the presence or absence of inhibitor, which was added 30 minutes before activation) 50 μL aliquots of the media were removed and nitrite production was quantified using Griess reagent. (See, Hevel, J. M.; White, K. A.; Marietta, M. Purification of the inducible murine macrophage nitric oxide synthase. Identification as a flavoprotein. J. Biol. Chem. 1991, 266, 22789-22791.)

[4] = target: murine iNOS (Mus musculus (Mouse), UniProt P29477); experiment: In vitro purified enzyme assay (hemoglobin capture), iNOS; type: biochemical; settings: for Ki: calculated from directly measured IC50 (Cheng-Prusoff), murine iNOS; for selectivity n/i: ratio of Ki (iNOS) to Ki (nNOS)
Experimental: as §1, §2

[5] = animal test results; cited from earlier work
[6] = cited from earlier work

Row | SMILES | Ki [1] | IC50 [1] | Ki [2] | selectivity n/e [2] | Relationship (fold higher in cells) [3] | IC50 [3] | Ki [4] | selectivity n/i [4] | BBB penetration [5] | pKa [6]
1 | Cc1cc(N)nc(C[C@H]2CNC[C@H]2OCCNCc2ccco2)c1 [Compound 3d, 6-(((3S,4S)-4-(2-(Furan-2-ylmethylamino)ethoxy)pyrrolidin-3-yl)methyl)-4-methylpyridin-2-amine] | 400 nM | 3.4 µM | 66 µM | 169 | 123 x | 420 µM | 36 µM | 92 |  | 
2 | Cc1cc(C[C@H]2CN(C(=O)OC(C)(C)C)C[C@H]2OCC=O)nc(N(C(=O)OC(C)(C)C)C(=O)OC(C)(C)C)c1 [Compound 2, reference compound] |  | 1 µM |  |  | 125 x | 125 µM |  |  | do not penetrate the BBB | 
3 | COc1ccccc1CNCCO[C@@H]1CNC[C@@H]1Cc1cc(C)cc(N)n1 [Compound 3b, 6-(((3S,4S)-4-(2-(2-Methoxybenzylamino)ethoxy)pyrrolidin-3-yl)methyl)-4-methylpyridin-2-amine] | 820 nM | 7.1 µM | 77 µM | 93 | 27 x | 190 µM | 114 µM | 139 |  | 
4 | C=CCO[C@@H]1CN(C(=O)OC(C)(C)C)C[C@@H]1Cc1cc(C)cc(N(C(=O)OC(C)(C)C)C(=O)OC(C)(C)C)n1 [Compound 1, reference compound] |  | 0.45 µM |  |  | 722 x | 325 µM |  |  | do not penetrate the BBB | 
5 | Cc1cc(N)nc(C[C@H]2CNC[C@H]2OCCNCc2ccccc2F)c1 [Compound 3a, 6-(((3S,4S)-4-(2-(2-Fluorobenzylamino)ethoxy)pyrrolidin-3-yl)methyl)-4-methylpyridin-2-amine] | 410 nM | 3.6 µM | 40 µM | 98 | 33 x | 120 µM | 44 µM | 105 |  | 
6 | Cc1cc(N)nc(C[C@H]2CNC[C@H]2OCCNCc2ccccc2O)c1 [Compound 3c, 2-((2-((3S,4S)-4-((6-Amino-4-methylpyridin-2-yl)methyl)pyrrolidin-3-yloxy)ethylamino)methyl)phenol] | 390 nM | 3.5 µM | 37 µM | 93 | 150 x | 520 µM | 57 µM | 143 |  | 
7 | CNc1cc(N)nc(NC)c1.Cl [Aminopyridine, 2-amino-4,6-dimethylaminopyridine hydrochloride, reference compound] |  | 0.05 µM |  |  | 500x |  |  |  |  | ~7
